Experiments:
aldose reductase = target: T1, aldose reductase (Bos taurus, UniProt P16116); experiment: inhibition of aldose reductase enzyme activity (partially purified enzyme from calf lens); assay type: biochemical; conditions: for inhibition at 1 µM: 10^-6 M, partially purified aldose reductase from calf lens; for aldose reductase inhibitory activity (in words): qualitative statement, no concentration given
T1 construct: partially purified aldose reductase enzyme obtained from calf lens; from tissue; host or cells: calf lens
Protocol: (§1) The activity of the compounds of the present invention, as agents for the control of chronic diabetic complications, is determined by their ability to successfully pass one or more of the following standard biological or pharmacological tests, viz., (1) measuring their ability to inhibit the enzyme activity of isolated aldose reductase; (2) measuring their ability to reduce or inhibit sorbitol accumulation in the sciatic nerve of acutely streptozotocinized (i.e., diabetic) rats; (3) measuring their ability to reverse already-elevated sorbitol levels in the sciatic nerve and lens of chronic streptozotocin-induced diabetic rats; (4) measuring their ability to prevent or inhibit galactitol formation in the lens of acutely galactosemic rats, and (5) measuring their ability to delay cataract formation and reduce the severity of lens opacities in chronic galactosemic rats.
The following spiro-oxindole imidazolidinedione final products of Examples 1-5, respectively, were tested at a concentration level of 10^-6 M for their ability to reduce or inhibit aldose reductase enzyme activity via the procedure of S. Hayman et al., as described in the Journal of Biological Chemistry, Vol. 240, p. 877 (1965) and as modified by K. Sestanj et al. in U.S. Pat. No. 3,821,383. In every case, the substrate employed was partially purified aldose reductase enzyme obtained from calf lens.

[1] = tested on: sorbitol levels in diabetic rats; experiment: inhibition of the formation of sorbitol levels in diabetic rats, oral; assay type: in vivo, rat; conditions: dose levels ranging from 0.5 mg/kg to 20 mg/kg
Excerpt: As previously indicated, the spiro-oxindole imidazolidinedione compounds of this invention are readily adapted to therapeutic use as aldose reductase inhibitors for the control of chronic diabetic complications, in view of their ability to reduce lens sorbitol levels in diabetic subjects to a statistically significant degree. […] Furthermore, the herein described compounds of this invention can be administered by either the oral or parenteral routes of administration. […]
as §1

Compound	inhibition at 1 µM (aldose reductase)	aldose reductase inhibitory activity (in words) (aldose reductase)	inhibition of the formation of sorbitol levels in diabetic rats (in words) [1]
O=C1NC(=O)C2(N1)C(=O)N(Cc1cccnc1)c1c(Cl)cc(Cl)cc12 (centres unmarked) [Example 2, 1'-(3-pyridymethyl)-5',7'-dichloro-spiro-[imidazolidine-4,3'-indoline]-2,2',5-trione]	81%	highly potent	significantly high degree
O=C1NC(=O)C2(N1)C(=O)Nc1cnccc12 (centres unmarked) [Example 5, spiro-[imidazolidine-4,3'-(6-azaindoline)]-2,2',5-trione]	49%	highly potent	

Now from value to molecule, other results behind:

inhibition at 1 µM (aldose reductase)	aldose reductase inhibitory activity (in words) (aldose reductase)	Compound	inhibition of the formation of sorbitol levels in diabetic rats (in words) [1]
27%	highly potent	Nc1ccc2c(c1)NC(=O)C21NC(=O)NC1=O (centres unmarked) [Example 4, 6'-amino-spiro-[imidazolidine-4,3'-indoline]-2,2',5-trione]	
72%	highly potent	Nc1cc(Cl)cc2c1NC(=O)C21NC(=O)NC1=O (centres unmarked) [Example 1, 5'-chloro-7'-amino-spiro-[imidazolidine-4,3'-indolidine]-2,2',5-trione]	
71%	highly potent	O=C1NC(=O)C2(N1)C(=O)N(Cc1cccnc1)c1ccc(F)cc12 (centres unmarked) [Example 3, 1'-(3-pyridylmethyl)-5'-fluorospiro-[imidazolidine-4,3'-indoline]-2,2',5-trione]	

Source: patent US4533667A, “Imidazolidinedione derivatives” (Pfizer Inc., priority 1984, dated 1985)
